# Source: publication PMC6943423, “Structure-Activity Study of an All-D Antimicrobial Octapeptide D2D” (Molecules, 2019)
# Square brackets hold non-standard residues; d marks the D form. Peptide text beside a SMILES is read from it. d1Nal = N[C@H](Cc1cccc2ccccc12)C(=O)O; dNle = CCCC[C@@H](N)C(=O)O
# Experiments:
# [1] = system: human red blood cells; assay: Hemolytic activity; format: cell-based; conditions: red cells of human, 1 h, 150
# Protocol: The percentage of hemolysis at 150 μM was determined for all compounds as previously described. Briefly, two-fold serial dilutions (2.35 to 150 μM) of compounds in PBS were mixed with a 0.5% v/v suspension of fresh human red blood cells (RBC) in the same buffer. After 1 h incubation at 37 °C, plates were centrifuged and aliquots of the supernatants were transferred to clear ELISA plates. Absorbance at 414 nm was determined and normalised with respect to a negative (PBS, 0%) and positive (melittin, 100%) control.
# [2] = Peptide self-assembly nanostructure in solution by SAXS; format: physicochemical; conditions: for nanostructure in solution (self-assembly, SAXS model): lab SAXS, 50 mM Tris buffer pH 7.4, 2.5–10 mg/mL, ambient temperature; for cross section of the nanotubes: values in Å
# Protocol: SAXS experiments of D2D and the alanine-scan (compounds 1–8) were performed using a Bruker NANOSTAR equipped with a microfocus X-ray source (IμS Cu, InCoatec, Germany) and a VÅNTEC-2000 detector. Raw scattering data was calibrated to absolute intensity scale using water as a primary standard and radially averaged in order to obtain the 1D scattered intensity profile as a function of the scattering vector q (q = 4 π sin (θ/2)/λ), where θ is the scattering angle and λ is the X-ray wavelength of 1.54 Å. The samples were dissolved in 50 mM Tris buffer, pH 7.4 (10 mg/mL, 5 mg/mL and 2.5 mg/mL) and injected manually into a temperature-controlled quartz cell located in a vacuum chamber and measured for 180 min.
# The scattering of the peptide D2D was analysed using a random polymer-like chain model:(1) Ichain(q)=ϕ·Vp·Δρ^2·Pchain(q) where ϕ is the volume fraction of the peptide, Vp is the volume of the polymer, Δρ is the excess scattering length density and Pchain(q) is the form factor of the free peptide chains given by the Debye expression for Gaussian chains:(2) gPchain(q)=2·exp[−(qRg)^2]−1+(qRg)^2/(qRg)^4 where Rg is the radius gyration of the peptide chains.
# The scattering for compounds 2 and 7 was analysed using a rectangular sheet like model:(3) Isheet(q)=ϕ·Vp·Δρ^2·Np·Psheet(q)
# Under the assumption that the length of the peptide sheets are much greater than the lateral dimension, i.e., c >> a, b, the form factor Psheet(q) is given by (4) Psheet(q)=Fc(q)1/2π∫02πAsheet(q, α)^2dα where the amplitude is given by (5) Asheet(q,α)=sin(qb cos(α)/2)/qb cos(α)/2· sin(qa sin(α)/2) /qa sin(α)/2) and (6) Fc(q)=(2 Si(qc)/(qc)−4 sin^2(qc/2)/(qc)^2 where Si(x)=∫0xt^−1sint dt .
# The expression for the absolute scattering intensity, from this structure can be written as:(7) Inanotube(q)=ϕ·P·Vtot·Δρ^2·P(q)L·A(q)cs2·DW(q) where ϕ is the volume fraction of the peptide, P is the aggregation number given by P π(Ro2−Ri2)L/Vp where Vp is the volume of a peptide chain, Ro is the outer radius and Ri is the inner radius of the tubes, and L is the length. A(q)cs2 is given by:(8) A(q)cs2=Ro2A(q,Rc)−Rin2A(q,Ri)/(Ro2−Ri2) where A(q,x)=2J1(q·x)/(q·x) and J1(x) is the first order Bessel function.
# The longitudinal form factor P(q)L is given by:(9) P(q)L=2 Si(QL)/QL −4 sin(sin^2(QL/2)/(QL)^2 where L is the length of the nanotubes and Si(x) is the Sine-function.
# In addition, we introduced a slight distribution in the inner radius for possible shape fluctuations, and a Debye Waller factor, DW(q) = exp(−q^2 σ^2), describing possible surface roughness of the inner and outer wall.
"nanostructure in solution (self-assembly, SAXS model) [2]","cross section of the nanotubes ([2]; SAXS nanotube model fit, 50 mM Tris pH 7.4)",SMILES,%H (% Hemolysis at 150 µM) [1]
random polymer-like chains,–,"CCCC[C@@H](NC(=O)[C@@H](CCCCN)NC(=O)[C@@H](Cc1cccc2ccccc12)NC(=O)[C@@H](CCCCN)NC(=O)[C@@H](Cc1ccccc1)NC(=O)[C@@H](Cc1cccc2ccccc12)NC(=O)[C@@H](CCCCN)NC(=O)[C@@H](C)N)C(N)=O [Compound 1, ak(1-nal)fk(1-nal)k(nle)-NH2] (H-[dA][dK][d1Nal][dF][dK][d1Nal][dK][dNle]-NH2)",41%
larger filament like structures,14 Å,"CCCC[C@@H](NC(=O)[C@@H](CCCCN)NC(=O)[C@@H](Cc1cccc2ccccc12)NC(=O)[C@@H](CCCCN)NC(=O)[C@@H](Cc1ccccc1)NC(=O)[C@@H](Cc1cccc2ccccc12)NC(=O)[C@@H](C)NC(=O)[C@H](N)CCCCN)C(N)=O [Compound 2, ka(1-nal)fk(1-nal)k(nle)-NH2] (H-[dK][dA][d1Nal][dF][dK][d1Nal][dK][dNle]-NH2)",59%
random polymer-like chains,–,"CCCC[C@@H](NC(=O)[C@@H](CCCCN)NC(=O)[C@@H](Cc1cccc2ccccc12)NC(=O)[C@@H](CCCCN)NC(=O)[C@@H](Cc1ccccc1)NC(=O)[C@@H](C)NC(=O)[C@@H](CCCCN)NC(=O)[C@H](N)CCCCN)C(N)=O [Compound 3, kkafk(1-nal)k(nle)-NH2] (HELM PEPTIDE1{[dK].[dK].[dA].[dF].[dK].[O=C([C@@H](Cc1cccc2ccccc12)N[*:1])[*:2]].[dK].[CCCC[C@@H](N[*:1])C(=O)[*:2]].[am]}$$$$V2.0)",2%
random polymer-like chains,–,"CCCC[C@@H](NC(=O)[C@@H](CCCCN)NC(=O)[C@@H](Cc1cccc2ccccc12)NC(=O)[C@@H](CCCCN)NC(=O)[C@@H](C)NC(=O)[C@@H](Cc1cccc2ccccc12)NC(=O)[C@@H](CCCCN)NC(=O)[C@H](N)CCCCN)C(N)=O [Compound 4, kk(1-nal)ak(1-nal)k(nle)-NH2] (H-[dK][dK][d1Nal][dA][dK][d1Nal][dK][dNle]-NH2; N-terminus assumed)",22%
–,–,"CCCC[C@@H](NC(=O)[C@@H](Cc1cccc2ccccc12)NC(=O)[C@@H](CCCCN)NC(=O)[C@@H](CCCCN)NC(=O)[C@@H](Cc1ccccc1)NC(=O)[C@@H](Cc1cccc2ccccc12)NC(=O)[C@@H](CCCCN)NC(=O)[C@H](N)CCCCN)C(N)=O [Compound 25, kk(1-nal)fkk(1-nal)(nle)-NH2] (H-[dK][dK][d1Nal][dF][dK][dK][d1Nal][dNle]-NH2)",50%
–,–,"CCCC[C@@H](NC(=O)[C@@H](Cc1cccc2ccccc12)NC(=O)[C@@H](CCCCN)NC(=O)[C@@H](Cc1ccccc1)NC(=O)[C@@H](Cc1cccc2ccccc12)NC(=O)[C@@H](CCCCN)NC(=O)[C@H](N)CCCCN)C(=O)N[C@H](CCCCN)C(N)=O [Compound 26, kk(1-nal)fk(1-nal)(nle)k-NH2] (H-[dK][dK][d1Nal][dF][dK][d1Nal][dNle][dK]-NH2; N-terminus assumed)",18%
–,–,"CCCC[C@@H](NC(=O)[C@@H](CCCCN)NC(=O)[C@@H](Cc1cccc2ccccc12)NC(=O)[C@@H](CCCCN)NC(=O)[C@@H](Cc1ccccc1)NC(=O)[C@@H](Cc1cccc2ccccc12)NC(=O)[C@H](N)CCCCN)C(N)=O [Compound 27, k(1-nal)fk(1-nal)k(nle)-NH2] (H-[dK][d1Nal][dF][dK][d1Nal][dK][dNle]-NH2; N-terminus assumed)",49%
–,–,"CCCC[C@@H](NC(=O)[C@@H](CCCCN)NC(=O)[C@@H](Cc1cccc2ccccc12)NC(=O)[C@@H](CCCCN)NC(=O)[C@@H](Cc1ccccc1)NC(=O)[C@H](N)Cc1cccc2ccccc12)C(N)=O [Compound 28, (1-nal)fk(1-nal)k(nle)-NH2] (H-[d1Nal][dF][dK][d1Nal][dK][dNle]-NH2; N-terminus assumed)",62%
–,–,"NCCCC[C@@H](N)C(=O)N[C@H](CCCCN)C(=O)N[C@H](Cc1cccc2ccccc12)C(=O)N[C@H](Cc1ccccc1)C(=O)N[C@H](CCCCN)C(=O)N[C@H](Cc1cccc2ccccc12)C(=O)N[C@H](CCCCN)C(N)=O [Compound 30, kk(1-nal)fk(1-nal)k-NH2] (HELM PEPTIDE1{[dK].[dK].[O=C([C@@H](Cc1cccc2ccccc12)N[*:1])[*:2]].[dF].[dK].[O=C([C@@H](Cc1cccc2ccccc12)N[*:1])[*:2]].[dK].[am]}$$$$V2.0; N-terminus assumed)",11%
–,–,"NCCCC[C@@H](N)C(=O)N[C@H](CCCCN)C(=O)N[C@H](Cc1cccc2ccccc12)C(=O)N[C@H](Cc1ccccc1)C(=O)N[C@H](CCCCN)C(=O)N[C@H](Cc1cccc2ccccc12)C(N)=O [Compound 31, kk(1-nal)fk(1-nal)-NH2] (HELM PEPTIDE1{[dK].[dK].[O=C([C@@H](Cc1cccc2ccccc12)N[*:1])[*:2]].[dF].[dK].[O=C([C@@H](Cc1cccc2ccccc12)N[*:1])[*:2]].[am]}$$$$V2.0; N-terminus assumed)",20%
–,–,"NCCCC[C@@H](N)C(=O)N[C@H](CCCCN)C(=O)N[C@H](Cc1cccc2ccccc12)C(=O)N[C@H](Cc1ccccc1)C(=O)N[C@H](CCCCN)C(N)=O [Compound 32, kk(1-nal)fk-NH2] (HELM PEPTIDE1{[dK].[dK].[O=C([C@@H](Cc1cccc2ccccc12)N[*:1])[*:2]].[dF].[dK].[am]}$$$$V2.0; N-terminus assumed)",5%
–,–,"CCCC[C@@H](NC(=O)[C@@H](CCCCN)NC(=O)[C@@H](Cc1cccc2ccccc12)NC(=O)[C@@H](CCCCN)NC(=O)[C@@H](Cc1ccccc1)NC(=O)[C@@H](Cc1cccc2ccccc12)NC(=O)[C@@H](CCCCN)NC(=O)[C@H](N)CCCNC(=N)N)C(N)=O [Compound 33, rk(1-nal)fk(1-nal)k(nle)-NH2] (H-[dR][dK][d1Nal][dF][dK][d1Nal][dK][dNle]-NH2)",60%
–,–,"CCCC[C@@H](NC(=O)[C@@H](CCCCN)NC(=O)[C@@H](Cc1cccc2ccccc12)NC(=O)[C@@H](CCCCN)NC(=O)[C@@H](Cc1ccccc1)NC(=O)[C@@H](Cc1cccc2ccccc12)NC(=O)[C@@H](CCCNC(=N)N)NC(=O)[C@H](N)CCCCN)C(N)=O [Compound 34, kr(1-nal)fk(1-nal)k(nle)-NH2] (H-[dK][dR][d1Nal][dF][dK][d1Nal][dK][dNle]-NH2; N-terminus assumed)",35%
–,–,"CCCC[C@@H](NC(=O)[C@@H](CCCCN)NC(=O)[C@@H](Cc1cccc2ccccc12)NC(=O)[C@@H](CCCNC(=N)N)NC(=O)[C@@H](Cc1ccccc1)NC(=O)[C@@H](Cc1cccc2ccccc12)NC(=O)[C@@H](CCCCN)NC(=O)[C@H](N)CCCCN)C(N)=O [Compound 35, kk(1-nal)fr(1-nal)k(nle)-NH2] (H-[dK][dK][d1Nal][dF][dR][d1Nal][dK][dNle]-NH2; N-terminus assumed)",49%
–,–,"CCCC[C@@H](NC(=O)[C@@H](CCCNC(=N)N)NC(=O)[C@@H](Cc1cccc2ccccc12)NC(=O)[C@@H](CCCCN)NC(=O)[C@@H](Cc1ccccc1)NC(=O)[C@@H](Cc1cccc2ccccc12)NC(=O)[C@@H](CCCCN)NC(=O)[C@H](N)CCCCN)C(N)=O [Compound 36, kk(1-nal)fk(1-nal)r(nle)-NH2] (H-[dK][dK][d1Nal][dF][dK][d1Nal][dR][dNle]-NH2; N-terminus assumed)",51%
